Reference: PubChem BioAssay AID720570 (Broad Institute, 2013)
Activity calls are given as the source filed them.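 How the source made its calls: active means cell-killing curve crosses a set limit at a concentration no more than twice the top valid dose; inconclusive means flat curve with a 30 to 70% loss, or a poor fit; inactive means signal rising instead of falling, and the rest.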

Experiment: cytotoxicity in EWS/Fli1-dependent TC71 cells – cell-based, luminescence, cherry-picked samples, retest, confirmation (AID 720570)
Settings: TC71 Ewing sarcoma viability, CellTiter-Glo ATP, 72 h

SMILES | activity change, negative = cytotoxicity (at 26 µM (top of the series)) | activity change, negative = cytotoxicity (at 23.5 µM (top of the series))
COc1ccc(/C=N/Nc2ccc(C(=O)O)cc2)cc1Br | -12.7% (inactive) | 
C[C@@H]1CCCCO[C@@H](CN(C)C(=O)Cc2ccccc2)[C@@H](C)CN([C@@H](C)CO)C(=O)c2cc(NS(=O)(=O)c3ccc(F)cc3)ccc2O1 | -0.12% (inactive) | 
COc1cc(OC)cc(-c2cc3nc(C)c(CCC(=O)NCc4ccccc4)c(C)n3n2)c1 | 9.58% (inactive) | 
COc1ccc(-c2sc3ccccc3c2-c2ccc(OCCN3CCCCC3)cc2)cc1 | 12.2% (inactive) | 
COc1ccc2cc(C(N)=O)/c(=N\NC(=O)c3ccccc3)oc2c1 | 16.9% (inactive) | 
COc1ccccc1/C=C1\SC(=S)N(CCC(=O)Nc2cc(C)on2)C1=O | 6.74% (inactive) | 
CC(=O)c1ccc(N=Nc2ccc(C)cc2)cc1 | 13.2% (inactive) | 
COC(=O)C[C@@H]1CC[C@@H]2[C@H](COc3ccc(NC(=O)c4cc(F)cc(F)c4)cc3C(=O)N2C)O1 | -5.96% (inactive) | 
COc1ccc(C(=O)OCC(=O)Nc2ccc(Cl)c(C(F)(F)F)c2)c(OC)c1OC | 3.2% (inactive) | 
C[C@@H]1CN([C@@H](C)CO)C(=O)Cc2cc(NC(=O)Cn3cnnn3)ccc2O[C@@H]1CN(C)Cc1ccc(Oc2ccccc2)cc1 | 21.2% (inactive) | 
CCn1c(C)cc(C(=O)CN2C(=O)c3ccccc3S2(=O)=O)c1C | 9.04% (inactive) | 
CN(C)c1ccc(N=Nc2ccccc2Br)cc1 | -15.6% (inactive) | 
COC(=O)c1cccc(NC(=O)NC(=O)c2ccccc2Cl)c1 | 7.25% (inactive) | 
Cc1ccc(/C=C/C(=O)N2CCN(S(=O)(=O)c3c(C)c(C)cc(C)c3C)CC2)o1 | -5.96% (inactive) | 
CCOc1ccc(NC(=O)C(=O)N/N=C\c2ccc(CNS(=O)(=O)c3ccccc3)o2)cc1 | 17.4% (inactive) | 
c1ccc(-c2ccc([C@H]3[C@H]4CNC[C@@H]3N4Cc3cc(-c4ccccc4)on3)cc2)cc1 | -7.89% (inactive) | 
O=c1oc2cc(O)ccc2s1 | -26.8% (inactive) | 
Cc1ccc(/C=C2\SC(=S)N(CCCC(=O)NNC(=O)c3ccccc3O)C2=O)cc1 | -5.43% (inactive) | 
CCN(CC)C(=O)CN1C(=O)C(=O)c2ccccc21 | 6.39% (inactive) | 
Cc1c(N=Cc2cc(Br)cc(Br)c2O)cccc1C(=O)O | 25.2% (inactive) | 
COc1ccc(NC(=O)N(C)[C@H]2C[C@H]3c4[nH]c5ccccc5c4CCN3C(=O)[C@H]2CO)cc1 | 2.92% (inactive) | 
COc1ccc(/C=C2\SC(=S)N(CCCC(=O)NNC(=O)c3ccccc3O)C2=O)cc1 | -6.8% (inactive) | 
CC(=O)c1ccc(N(C(=O)Cn2nnc3ccccc32)C(C(=O)NCc2ccccc2)c2ccccn2)cc1 (configuration not stated) | 9.64% (inactive) | 
C[C@@H]1CN([C@@H](C)CO)S(=O)(=O)c2ccc(C#CCN(C)C)cc2O[C@@H]1CN(C)Cc1ccncc1 | -4.92% (inactive) | 
COc1ccc(N=C2C(=O)Nc3ccc(C)c(Br)c32)cc1 | 5.89% (inactive) | 
COc1ccccc1NS(=O)(=O)c1cc(NC(=O)c2cc3ccccc3oc2=O)ccc1C | 1.31% (inactive) | 

SMILES | activity change, negative = cytotoxicity (at 26 µM (top of the series)) | activity change, negative = cytotoxicity (at 23.5 µM (top of the series))
Cc1cc(C)cc(OCC(=O)OCC(=O)Nc2cc(S(=O)(=O)N3CCOCC3)ccc2C)c1 | 5.46% (inactive) | 
O=C(CNC(c1ccccc1)c1ccccc1)Nc1ccccc1-c1ccccc1 | 11.2% (inactive) | 
CO[C@H]1CN(C)C(=O)c2cc(NC(=O)c3ccc(Oc4ccccc4)cc3)ccc2OC[C@H](C)NC[C@@H]1C | -22.7% (inactive) | 
Cc1ccc(S(=O)(=O)N(C)C[C@H]2Oc3c(cccc3N(C)C)C(=O)N([C@@H](C)CO)C[C@@H]2C)cc1 | -6.3% (inactive) | 
COc1cc(/C=N/NC(=O)c2csc3c2CCCC3)cc(OC)c1O | -7.47% (inactive) | 
CCNC(=O)[C@@H]1[C@@H](CO)[C@@H]2Cn3c(ccc(C4=CCCCC4)c3=O)[C@H]1N2CC | 8.36% (inactive) | 
COc1ccc(Nc2oc(COc3ccccc3OC)nc2C#N)cc1 | 0.131% (inactive) | 
CN(C)C(=O)c1ccc(-c2ccccc2[C@@H]2[C@@H](CO)N(C(=O)C3CC3)[C@H]2C#N)cc1 | 25.5% (inactive) | 
COc1cc(/C=N/NS(=O)(=O)c2ccc3ccccc3c2)ccc1OCc1ccc(C(=O)O)cc1 | 12.1% (inactive) | 
COc1ccc(S(=O)(=O)Nc2ccc3c(c2)C(=O)N([C@H](C)CO)C[C@@H](C)[C@@H](CN(C)CC2CCCCC2)OCCCC[C@H](C)O3)cc1 | -1.56% (inactive) | 
COC(=O)c1c(C)[nH]c(/C=N/Nc2ccccc2)c1C | 7.36% (inactive) | 
CN(C)C(=S)N=Nc1[nH]c2ccccc2c1O | 16.9% (inactive) | 
Cc1ccc2c(c1)C(=O)N1[C@H]3c4cc(Br)ccc4OC[C@@H]3[C@H](c3ccccc3)[C@]1(C)C(=O)N2 | -5.71% (inactive) | 
Brc1ccc(CSc2nnc(-c3ccco3)o2)cc1 | 9.85% (inactive) | 
CCc1ccc(/C=C2\SC(=S)N(CCCC(=O)NC3=NCCS3)C2=O)cc1 | 13.5% (inactive) | 
C[C@@H]1CN([C@H](C)CO)S(=O)(=O)c2ccc(C#CC3CC3)cc2O[C@@H]1CN(C)Cc1ccccc1F | -4.35% (inactive) | 
O=S(=O)(c1ccc(F)cc1)N1C[C@H]2[C@@H](c3ccccc31)[C@H](CO)N2Cc1ccccc1Cl |  | -20.2% (inactive)
CCOc1ccc(-c2cc(CCCC(=O)N3CCN(c4ccc(OC)cc4)CC3)no2)cc1 | -1.53% (inactive) | 
CCS(=O)(=O)N1Cc2ccccc2CC1C(=O)Nc1nnc(SCc2ccc(C#N)cc2)s1 (configuration not stated) | 21.3% (inactive) | 
COC(=O)C[C@@H]1CC[C@@H]2[C@H](COc3ccc(NC(=O)c4ccc(F)cc4)cc3C(=O)N2C)O1 | 15.1% (inactive) | 
O=C(O)c1ccc(N/N=C/c2cc(Br)cs2)cc1 | 25.7% (inactive) | 
CCCCCCN(C(=O)CCCCCN1C(=O)NC(c2ccc(Cl)cc2)C(C(=O)OCc2ccccc2)=C1C)C(C(=O)NCCCC)c1ccc(OCC(=O)OC)c(C(=O)OC)c1 (configuration not stated) | 8.62% (inactive) | 
CCCCOc1ccc(NC(=O)C(=O)NCCCn2ccnc2)cc1 | -2% (inactive) | 
CCCNC(=O)[C@@H]1[C@@H](CO)[C@@H]2Cn3c(ccc(-c4ccccc4)c3=O)[C@H]1N2C(=O)CC | 0.956% (inactive) | 
O=C(O)c1cccc(N/N=C/c2cccs2)c1 | 8.12% (inactive) | 
CN(C)c1ccc(N=Nc2ccc(C(=O)O)cc2)cc1 | 9.97% (inactive) | 

SMILES | activity change, negative = cytotoxicity (at 26 µM (top of the series)) | activity change, negative = cytotoxicity (at 23.5 µM (top of the series))
CCOc1cc2[nH]c(=S)n(Cc3ccc(C(=O)N4CCN(C)CC4)cc3)c(=O)c2cc1OCC | 11.2% (inactive) | 
Cc1ccc(C(=O)O/N=C(\N)c2ccccn2)cc1 | -10% (inactive) | 
O=C(Cc1nn[nH]n1)c1ccccc1O | 13.8% (inactive) | 
CCc1ccc(/C=C2\SC(=S)N(CCCC(=O)N3CCN(C)CC3)C2=O)cc1 | -30.1% (inactive) | 
CC(C)(C)C(=O)Nc1ccc(N=Nc2ccccc2)cc1 | -0.79% (inactive) | 
C/C=C/c1ccc([C@H]2[C@@H](CO)N3C(=O)CN(S(=O)(=O)c4cccc(F)c4)C[C@@H]23)cc1 | 13.2% (inactive) | 
COC(=O)[C@H]1[C@H](CO)[C@H]2Cn3c(ccc(-c4ccccc4F)c3=O)[C@@H]1N2CC1CCCC1 | 4.06% (inactive) | 
O=C1Nc2cc(C(=O)NCCN3CCCCCC3)ccc2S/C1=C\c1ccccc1 | -2.13% (inactive) | 
O=C(Nc1ccc(NC(=O)c2cc3ccccc3o2)cc1)c1ccc2c(c1)OCCO2 | -3.21% (inactive) | 
O=C1C(=O)N(Cc2cccs2)c2ccccc21 | 17.4% (inactive) | 
C/C=C/c1ccc(C2[C@@H]3CN(C(=O)Cc4ccccc4)C[C@H]2N3)cc1 (some centres not stated) | 6.18% (inactive) | 
CCC(C)Cn1c(O)cc2nn(-c3nc4ccccc4s3)c(=O)c-2c1C (configuration not stated) | -4.93% (inactive) | 
CCCn1c(C)cc(C(=O)CN2C(=O)c3ccccc3S2(=O)=O)c1C | 5.44% (inactive) | 
Cc1c(CC(=O)NCCCC(=O)O)c(=O)oc2cc3c(cc12)CCC(C)(C)O3 | 4.66% (inactive) | 
O=C(CCCN1C(=O)/C(=C/c2ccccc2Cl)SC1=S)NNC(=O)c1ccc(Cl)cc1Cl | -1.95% (inactive) | 
CCOC(=O)Cc1ccc(NC(=O)c2ccccc2Br)cc1 | 1.04% (inactive) | 
COc1ccc(/C=C2\SC(=S)N(CCCC(=O)NC3CCCC3)C2=O)cc1OC | -1.55% (inactive) | 
O=C(CCCN1C(=O)/C(=C/c2ccccc2Cl)SC1=S)NNC(=O)c1ccc(Cl)cc1 | -7.21% (inactive) | 
CCOc1ccc(/C=C2\CCc3ccccc3C2=O)cc1 | 4.42% (inactive) | 
C[C@H](CO)N1C[C@H](C)[C@H](CN(C)Cc2ccc(C(F)(F)F)cc2)Oc2c(NS(=O)(=O)c3ccc(Cl)cc3)cccc2C1=O | 46.6% (inactive) | 
O=C1Nc2ccccc2C1=Nc1ccc(Br)cc1 | -5.59% (inactive) | 
Cc1ccc(C(C(=O)NCc2ccco2)N(C(=O)CNC(=O)c2cccs2)c2c(C)cc(C)cc2C)cc1 (configuration not stated) | -13.1% (inactive) | 
COC(=O)C[C@H]1CC[C@H]2[C@@H](COc3ccc(NC(=O)Nc4cccc(Cl)c4)cc3C(=O)N2C)O1 | -10.7% (inactive) | 
O=c1cc(CN2CCN(Cc3ccccc3)CC2)c2ccc(O)c(O)c2o1 | -9.02% (inactive) | 
CCN1CCN(/C=N/c2nc3c(s2)CCCC3)CC1 | -11.1% (inactive) | 
